Among the data in patent publication US10081623B2, “Diamide macrocycles that are FXIa inhibitors” (BRISTOL-MYERS SQUIBB COMPANY, priority 2014, dated 2018) are Ki values, retold here.

The term Ki denotes a dissociation constant, usually derived from enzyme kinetics or from competition with a known ligand. Higher therefore signals lower affinity.

The target in the experiment is purified human Factor XIa (Homo sapiens (Human), UniProt P03951). Briefly: Factor XIa assay (chromogenic substrate S-2366 hydrolysis, Ki). The following applies: measured at 37° C. In kind it is biochemical. The method, then:
The effectiveness of compounds of the present invention as inhibitors of the coagulation Factors XIa, VIIa, IXa, Xa, XIIa, plasma kallikrein or thrombin, can be determined using a relevant purified serine protease, respectively, and an appropriate synthetic substrate. The rate of hydrolysis of the chromogenic or fluorogenic substrate by the relevant serine protease was measured both in the absence and presence of compounds of the present invention. […] A decrease in the rate of absorbance or fluorescence change in the presence of inhibitor is indicative of enzyme inhibition. Such methods are known to one skilled in the art. The results of this assay are expressed as the inhibitory constant, Ki.
Factor XIa determinations were made in 50 mM HEPES buffer at pH 7.4 containing 145 mM NaCl, 5 mM KCl, and 0.1% PEG 8000 (polyethylene glycol; JT Baker or Fisher Scientific). Determinations were made using purified human Factor XIa at a final concentration of 25-200 pM (Haematologic Technologies) and the synthetic substrate S-2366 (pyroGlu-Pro-Arg-pNA; CHROMOGENIX® or AnaSpec) at a concentration of 0.0002-0.001 M.
The Michaelis constant, Km, for substrate hydrolysis by each protease, was determined at 25° C. or 37° C. in the absence of inhibitor. Values of Ki were determined by allowing the protease to react with the substrate in the presence of the inhibitor. […] The following relationships were used to calculate Ki values: (Vmax*S)/(Km+S); (vo−vs)/vs=I/(Ki(1+S/Km)) for a competitive inhibitor with one binding site; or vs/vo=A+(B−A)/(1+(I/IC50)^n); and Ki=IC50/(1+S/Km) for a competitive inhibitor where: […]

purified human Factor XIa, sequence (P03951 388-625): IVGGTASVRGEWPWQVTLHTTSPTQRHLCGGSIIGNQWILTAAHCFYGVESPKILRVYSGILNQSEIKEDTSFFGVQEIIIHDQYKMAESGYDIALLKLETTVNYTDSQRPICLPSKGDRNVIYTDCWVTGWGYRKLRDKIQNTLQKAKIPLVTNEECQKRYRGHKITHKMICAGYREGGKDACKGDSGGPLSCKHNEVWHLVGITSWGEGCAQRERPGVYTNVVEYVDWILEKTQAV
purified human Factor XIa, sequence (P03951 19-387 partner): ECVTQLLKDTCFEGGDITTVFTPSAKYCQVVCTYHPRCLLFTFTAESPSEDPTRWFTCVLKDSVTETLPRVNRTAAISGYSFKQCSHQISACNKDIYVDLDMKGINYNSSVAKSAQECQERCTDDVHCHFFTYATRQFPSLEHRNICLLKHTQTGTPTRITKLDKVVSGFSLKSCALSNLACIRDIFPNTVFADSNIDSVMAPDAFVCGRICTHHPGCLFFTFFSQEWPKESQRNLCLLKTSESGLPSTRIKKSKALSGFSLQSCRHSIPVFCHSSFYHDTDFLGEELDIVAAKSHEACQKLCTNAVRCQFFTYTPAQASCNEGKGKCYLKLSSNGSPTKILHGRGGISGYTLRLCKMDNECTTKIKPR

Consider `COC(=O)Nc1ccc2c(c1)NC(=O)CC/C=C/CC(C(=O)NCCc1cc(Cl)ccc1-n1cnnn1)NC2=O` (single isomer, unassigned) [Example 26, (E)-Methyl N-[8-({2-[5-chloro-2-(1H-1,2,3,4-tetrazol-1-yl)phenyl]ethyl}carbamoyl)-2,10-dioxo-1,2,3,4,7,8,9,10-octahydro-1,9-benzodiazacyclododecin-13-yl]carbamate], for which the Ki came to 64.1 nM.

As for `COC(=O)Nc1ccc2c(c1)NC(=O)CCCCCC(C(=O)NCCC1CCN(C(=N)N)CC1)NC2=O` (racemic) [Example 6, (±)-Methyl N-(8-{[2-(1-carbamimidoylpiperidin-4-yl)ethyl]carbamoyl}-2,10-dioxo-1,2,3,4,5,6,7,8,9,10-decahydro-1,9-benzodiazacyclododecin-13-yl)carbamate], the Ki stood at 627 nM.

For `COC(=O)Nc1ccc2c(c1)NC(=O)CCCCCC(C(=O)NC1Cc3ccccc3NC1=O)NC2=O` (racemic) [Example 7, (±)-Methyl N-{2,10-dioxo-8-[(2-oxo-1,2,3,4-tetrahydroquinolin-3-yl)carbamoyl]-1,2,3,4,5,6,7,8,9,10-decahydro-1,9-benzodiazacyclododecin-13-yl}carbamate], the affinity corresponds to a Ki of 708 nM.

`COC(=O)Nc1ccc2c(c1)NC(=O)CCCCCC(C(=O)N1CCCC(c3cccc(OC)c3)C1)NC2=O` (racemic) [Example 10, (±)-Methyl N-{8-[3-(3-methoxyphenyl)piperidine-1-carbonyl]-2,10-dioxo-1,2,3,4,5,6,7,8,9,10-decahydro-1,9-benzodiazacyclododecin-13-yl}carbamate] yielded a Ki of 2620 nM.

With `COC(=O)Nc1ccc2c(c1)NC(=O)CCCCCC(C(=O)NCCc1cc(Cl)ccc1-n1cnnn1)NC2=O` (single isomer, unassigned) [Example 2, Methyl N-[8-({2-[5-chloro-2-(1H-1,2,3,4-tetrazol-1-yl)phenyl]ethyl}carbamoyl)-2,10-dioxo-1,2,3,4,5,6,7,8,9,10-decahydro-1,9-benzodiazacyclododecin-13-yl]carbamate], the inhibitory constant (Ki) is 2180 nM.

On to `N=C(N)N1CCC(CNC(=O)C2CC=CCCC(=O)Nc3ccccc3C(=O)N2)CC1` (racemic) [Example 29, (E/Z)-(±)-N-[(1-Carbamimidoylpiperidin-4-yl)methyl]-2,10-dioxo-1,2,3,4,7,8,9,10-octahydro-1,9-benzodiazacyclododecine-8-carboxamide], for which affinity was put at a Ki of 1400 nM.

Molecule `COC(=O)Nc1ccc2c(c1)NC(=O)CCCCCC(C(=O)NC1CCN(C(=N)N)CC1)NC2=O` (racemic) [Example 4, (±)-Methyl N-{8-[(1-carbamimidoylpiperidin-4-yl)carbamoyl]-2,10-dioxo-1,2,3,4,5,6,7,8,9,10-decahydro-1,9-benzodiazacyclododecin-13-yl}carbamate] registered a Ki of 1490 nM.

Take `N=C(N)N1CCC(NC(=O)C2C/C=C\CCC(=O)Nc3ccccc3C(=O)N2)CC1` (racemic) [Example 30, (Z)-(±)-N-(1-Carbamimidoylpiperidin-4-yl)-2,10-dioxo-1,2,3,4,7,8,9,10-octahydro-1,9-benzodiazacyclododecine-8-carboxamide]: the Ki stood at 2200 nM.

`COC(=O)Nc1ccc2c(c1)NC(=O)CC/C=C\CC(C(=O)NCCc1cc(Cl)ccc1-n1cnnn1)NC2=O` (single isomer, unassigned) [Example 24, (Z)-Methyl N-[8-({2-[5-chloro-2-(1H-1,2,3,4-tetrazol-1-yl)phenyl]ethyl}carbamoyl)-2,10-dioxo-1,2,3,4,7,8,9,10-octahydro-1,9-benzodiazacyclododecin-13-yl]carbamate] showed a Ki of 153 nM. This Ki lies about 14-fold lower than the previous one.

`COC(=O)Nc1ccc2c(c1)NC(=O)CC/C=C\CC(C(=O)NCCc1cc(Cl)ccc1-n1cnnn1)NC2=O` (single isomer, unassigned) [Example 23, (Z)-Methyl N-[8-({2-[5-chloro-2-(1H-1,2,3,4-tetrazol-1-yl)phenyl]ethyl}carbamoyl)-2,10-dioxo-1,2,3,4,7,8,9,10-octahydro-1,9-benzodiazacyclododecin-13-yl]carbamate] displayed a Ki of 157 nM.

Take `COC(=O)Nc1ccc2c(c1)NC(=O)CCCCCC(C(=O)NCC1CCN(C(=N)N)CC1)NC2=O` (racemic) [Example 5, (±)-Methyl N-(8-{[(1-carbamimidoylpiperidin-4-yl)methyl]carbamoyl}-2,10-dioxo-1,2,3,4,5,6,7,8,9,10-decahydro-1,9-benzodiazacyclododecin-13-yl)carbamate]: affinity was put at a Ki of 825 nM.

Regarding `N=C(N)N1CCC(NC(=O)C2C/C=C/CCC(=O)Nc3ccccc3C(=O)N2)CC1` (racemic) [Example 31, (E)-(±)-N-(1-Carbamimidoylpiperidin-4-yl)-2,10-dioxo-1,2,3,4,7,8,9,10-octahydro-1,9-benzodiazacyclododecine-8-carboxamide], the Ki was determined as 811 nM. This Ki and that of the molecule before are within 1.5-fold of each other.

In the case of `COC(=O)Nc1ccc2c(c1)NC(=O)CCC=CCC(C(=O)NCCc1cc(Cl)ccc1-n1cnnn1)NC2=O` (racemic) [Example 22, (E/Z)-(±)-Methyl N-[8-({2-[5-chloro-2-(1H-1,2,3,4-tetrazol-1-yl)phenyl]ethyl}carbamoyl)-2,10-dioxo-1,2,3,4,7,8,9,10-octahydro-1,9-benzodiazacyclododecin-13-yl]carbamate], the Ki was < 5 nM.

With `COC(=O)Nc1ccc2c(c1)NC(=O)CCCCCC(C(=O)NCCc1cc(Cl)ccc1-n1cnnn1)NC2=O` (racemic) [Example 1, (±)-Methyl N-[8-({2-[5-chloro-2-(1H-1,2,3,4-tetrazol-1-yl)phenyl]ethyl}carbamoyl)-2,10-dioxo-1,2,3,4,5,6,7,8,9,10-decahydro-1,9-benzodiazacyclododecin-13-yl]carbamate], the affinity, expressed as Ki, was 17.9 nM. This counts as double-digit nanomolar.

In turn, `O=C1CCC=CCC(C(=O)NCCc2cc(Cl)ccc2-n2cnnn2)NC(=O)c2ccccc2N1` (racemic) [Example 27, (E/Z)-(±)-N-{2-[5-Chloro-2-(1H-1,2,3,4-tetrazol-1-yl)phenyl]ethyl}-2,10-dioxo-1,2,3,4,7,8,9,10-octahydro-1,9-benzodiazacyclododecine-8-carboxamide] showed a Ki of 39.1 nM.

With `COC(=O)Nc1ccc2c(c1)NC(=O)CCCCCC(C(=O)NCCc1cc(Cl)ccc1-n1cnnn1)NC2=O` (single isomer, unassigned) [Example 3, Methyl N-[8-({2-[5-chloro-2-(1H-1,2,3,4-tetrazol-1-yl)phenyl]ethyl}carbamoyl)-2,10-dioxo-1,2,3,4,5,6,7,8,9,10-decahydro-1,9-benzodiazacyclododecin-13-yl]carbamate], affinity was put at a Ki of 41.9 nM.

Molecule `COC(=O)Nc1ccc2c(c1)NC(=O)CCCCCC(C(=O)NCc1csc3ccc(Cl)cc13)NC2=O` (racemic) [Example 8, (±)-Methyl N-(8-{[(5-chloro-1-benzothiophen-3-yl)methyl]carbamoyl}-2,10-dioxo-1,2,3,4,5,6,7,8,9,10-decahydro-1,9-benzodiazacyclododecin-13-yl)carbamate] had an inhibitory constant (Ki) of 1340 nM.

In the case of `COC(=O)Nc1ccc2c(c1)NC(=O)CC/C=C/CC(C(=O)NCCc1cc(Cl)ccc1-n1cnnn1)NC2=O` (single isomer, unassigned) [Example 25, (E)-Methyl N-[8-({2-[5-chloro-2-(1H-1,2,3,4-tetrazol-1-yl)phenyl]ethyl}carbamoyl)-2,10-dioxo-1,2,3,4,7,8,9,10-octahydro-1,9-benzodiazacyclododecin-13-yl]carbamate], the Ki was < 5 nM.
